pIC50: −log10 of the molar value.
Biological target: Aβ(1-42) (Homo sapiens, UniProt P05067)
Assay: Aggregation inhibition by paper-based ECL assay with [Ru
Type: biochemical

Sequence of Aβ(1-42) (P05067 672-713): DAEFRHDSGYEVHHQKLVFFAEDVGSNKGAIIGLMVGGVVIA

pIC50: 5.97
SMILES: Nc1c(/N=N/c2ccc(-c3ccc(/N=N/c4cc(S(=O)(=O)O)c5ccccc5c4N)cc3)cc2)cc(S(=O)(=O)O)c2ccccc12 [CR, Congo red]

Reference: publication PMC5928890 (Theranostics, 2018)
